What was measured:
ES cells = test: Water permeability of ES cells (fluorescence-quenching assay); format: cell-based; details: immortalized human ES epithelial cells
Procedure: For water permeability measurement, an ES cell line is plated in 96-well clear bottom of black-walled microplates (Costar) at a density of 20000 cells per well in F-12 Ham's medium supplemented with 10% FBS and 0.5 mg/mL G418. After incubation at 37° C. in an atmosphere containing 5% CO2 with 90% humidity for 18 h, the cells in 96-well plates are washed twice in PBS buffer (200 μL/wash), leaving 100 μL PBS after the last wash. Measurement is performed on a FLUOstar Optima plate reader (BMG Technology) equipped with syringe pumps and excitation and emission filters. Cells in each well of the plate are assayed individually for osmotically driven (e.g., aquaporin-mediated), water influx across the plasma membrane that dilutes the cytoplasmic Cl^− by recording fluorescence increase continuously (0.2 s per point) for 2 s (baseline) and then for 21 s (water transport into the cells) after rapid injection (<1 s) of 100 μL distilled water. Water permeability is expressed as half time (t1/2) from water injection to the point when the cytoplasmic fluorescence reaches the maximum. A smaller t1/2 represents a higher water permeability.
The inner ear can function properly only if the chemical equilibrium and volume of inner ear fluids are maintained. The disruption of inner ear homeostasis results in many inner ear disorders such as Meniere's disease. […]

AQP2 = test: RT-PCR analysis of AQP2 expression in ES cells; format: cell-based; details: immortalized human ES epithelial cells
From the text: The inner ear can function properly only if the chemical equilibrium and volume of inner ear fluids are maintained. The disruption of inner ear homeostasis results in many inner ear disorders such as Meniere's disease. The endolymphatic sac (ES) is believed to be involved in homeostasis of endolymph such as ion and fluid regulation. Aquaporins (AQPs) function like a molecular water valve, allowing water to move along a specific direction. AQP1, 2, 3, 4, and 6 are all found in the ES and may have an important role in endolymph fluid homeostasis. […] Taken together, our findings indicate that ES epithelial cells are invovled in homeostasis of endolymph through regulation of AQP2 and AQP3. We believe that our ES cell line will provide an in vitro model enabling us to better understand the molecular pathogeneis of Meniere's disease.

[1] = tested on: mucin core proteins and hyaluronic acid synthases; test: qRT-PCR analysis of mucin core proteins and hyaluronic acid synthases in HESC-1 cells; format: cell-based, human
From the text: We identified hyaluronic acid among the osmotically active substances derived from our ES cell line. Three isoforms of hyaluronic acid synthases (HASs) are identified in humans. For example, transcriptional regulation of each HAS can be determined using real-time quantitative RT-PCR analysis after extraction of total RNAs from the ES cell line. Protein levels of each HAS can be measured using immunobloting after extraction of total proteins from the ES cell line. To determine the factors regulating each HAS, the cells can be cultured using a serum-free medium with deficiency of a specific factor such as retinoic acid, hydrocortisone and triiodothronine.
(§1) Regulatory mechanisms involved in secretion and biological functions of these molecules can be determined. The HESC-1 cells provides a basis for an in vitro model for the studies of secretory function of the ES.

HESC-1 cells = test: Secretion of viscous substance by HESC-1 cells; format: cell-based, human
From the text: For example, viscosity of the substance derived from the cells can be measured using an Ubbelohde viscometer (VWR) after collection of the supernatant. Osmolality of the substance can be measured using a freezing point osmometer (Precision Systems, Natick, MA). To determine the factors influencing secretion of osmotically active and viscous substances, the cells can be cultured using a serum-free medium with deficiency of a specific factor such as retinoic acid, hydrocortisone and triiodothronine.
as §1

Molecule: NC(=O)CC[C@@H]1NC(=O)[C@H](Cc2ccccc2)NC(=O)[C@H](Cc2ccc(O)cc2)NC(=O)[C@@H](N)CSSC[C@@H](C(=O)N2CCC[C@H]2C(=O)N[C@@H](CCCN=C(N)N)C(=O)NCC(N)=O)NC(=O)[C@H](CC(N)=O)NC1=O [vasopressin]
- water permeability of ES cells upon exposure (ES cells): affected
- AQP2 expression (RT-PCR) (AQP2): up-regulation

Molecule: EGF: human epidermal growth factor (EGF) (NSDSECPLSHDGYCLHDGVCMYIEALDKYACNCVVGYIGERCQYRDLKWWELR; UniProt P01133 971-1023, looked up)
- expression of mucin core proteins and hyaluronic acid synthases (qRT-PCR) [1]: up-regulate
- secretion of viscous substance (HESC-1 cells): secrete viscous substance

From patent US20120122716A1, “CELL LINE DERIVED FROM THE EPITHELIAL LINING OF THE HUMAN ENDOLYMPHATIC SAC IN THE INNER EAR” (priority 2010, published 2012)
